Laboratory results taken from patent publication US8765447B2, “Fungal strain Beauveria sp. MTCC 5184 and a process for the preparation of enzymes therefrom” (Council of Scientific and Industrial Research, priority 2010, dated 2014).

Tests used:
Type in all cases: biochemical
[1] = tested on: protease of Beauveria sp MTCC 5184; test: Effect of inhibitors on protease activity
Experimental: (§1) The protease activity has been expressed in terms of tyrosine equivalents. The reaction mixture contained an aliquot of suitably diluted enzyme solution and 10 mg Hammerstein casein in 0.1 M sodium carbonate buffer pH 9.0 in a total volume of 2 ml. After incubation at 50° C. for 10 min, the reaction was terminated by the addition of 3 ml of 5% trichloroacetic acid (acidified with concentrated hydrochloric acid). The precipitate formed was filtered through Whatman No. 1 filter paper after standing for 30 min at room temperature. The absorbance of trichloroacetic acid soluble fraction was measured at 280 nm. Micrograms of tyrosine produced was calculated from a pre-calibrated graph of absorbance at 280 nm against tyrosine concentration and the units are expressed as […] of tyrosine released per minute under assay conditions.
This example illustrates the effect of inhibitors on protease activity of Beauveria sp MTCC 5184. Following inhibitors were studied: phenylmethylsulfonyl fluoride (PMSF), ethylene-diaminetetraacetic acid (EDTA), iodoacetic acid, N-tosyl-L-phenylalanine chloromethyl ketone (TPCK), N-tosyl-L-lysine chloromethyl ketone (TLCK), Dimethylsulphoxide (DMSO) and Benzamidine. […] Protease without inhibitor served as control.

[2] = tested on: protease of Beauveria sp MTCC 5184; test: Effect of metal ions on protease activity; settings: for Residual Activity (%): 28° C., 30 min; for inhibition: 1 mM
Experimental: as §1
This example illustrates the effect of metal ions on protease activity of Beauveria sp MTCC 5184.

[3] = tested on: purified protease of Beauveria sp MTCC 5184; test: Stability of purified protease in organic solvents at 50° C.; settings: 25% (v/v) solvent
Text: Following organic solvents were used: acetone, 1-butanol, benzene, chloroform, dimethylsulphoxide, ethanol, hexane, isopropanol and methanol. […] Samples were removed at different time intervals and residual activity was estimated.

[4] = tested on: protease of Beauveria sp MTCC 5184; test: Substrate protection by casein against inhibition by PMSF, NBS and WRK
Text: The example illustrates the study of substrate protection by casein on inhibition of Beauveria sp MTCC 5184 protease by PMSF, WRK and NBS. […] Increase in casein concentration decreased the inhibition by both the inhibitors indicating substrate protection by casein (Table 11). This indicates the presence of serine, aspartic acid and tryptophan at the active site of protease.

[5] = tested on: protease of Beauveria sp MTCC 5184; test: Modification of tryptophan of protease with NBS; settings: 28° C., 30 min
Experimental: This example illustrates the modification of tryptophan with N-bromosuccinimide (NBS) and its effect on protease activity. […] Protease incubated without NBS served as the control.

[6] = tested on: purified protease of Beauveria sp MTCC 5184; test: Effect of β-mercapto ethanol and Triton X-100 on protease activity; settings: 30 min
Text: This example illustrates the effect of β-mercapto ethanol (BME) and Triton X-100 on protease activity of Beauveria sp MTCC 5184.

[7] = tested on: protease of Beauveria sp MTCC 5184; test: Modification of serine residue of protease by PMSF; settings: 28° C., 30 min
Experimental: This example illustrates the modification of serine residue of protease by PMSF and its effect on protease activity. […] Protease incubated without PMSF served as the control.

[8] = tested on: protease of Beauveria sp MTCC 5184; test: Modification of aspartic acid residue of protease by WRK; settings: 28° C., 30 min
Experimental: This example illustrates the modification of aspartic acid residue of protease by Woodward's reagent (WRK) and its effect on protease activity. […] Protease incubated without WRK served as the control.

[9] = inhibitor 5 mM, pre-incubated 1 h, pH 8.0

O=C(O)CI [Iodoacetate, iodoacetic acid]
Inhibition (%) ([1]; pH 8): 0.30%

[Cl][Mn][Cl] [Mn^+2]
Residual Activity (%) ([2]; 1 mM chloride salt): 101.51% | Residual Activity (%) ([2]; 10 mM chloride salt): 73.98%

CCCCCC [Hexane, hexane]
Residual Activity (%) ([3]; 0 h, pH 7): 100.00% | Residual Activity (%) ([3]; 1 h, pH 7): 76.18% | Residual Activity (%) ([3]; 2 h, pH 7): 29.43%

CC(C)O [Isopropanol, isopropanol]
Residual Activity (%) ([3]; 0 h, pH 7): 100.00% | Residual Activity (%) ([3]; 1 h, pH 7): 71.26% | Residual Activity (%) ([3]; 2 h, pH 7): 46.16%

[Hg+2] [Hg^+2]
inhibition [2]: 10% | Residual Activity (%) ([2]; 1 mM chloride salt): 90.38% | Residual Activity (%) ([2]; 10 mM chloride salt): 63.16%

[Cl-].[Na+] [Na^+1]
Residual Activity (%) ([2]; 1 mM chloride salt): 100.94% | Residual Activity (%) ([2]; 10 mM chloride salt): 99.01%

c1ccccc1 [Benzene, benzene]
Residual Activity (%) ([3]; 0 h, pH 7): 100.00% | Residual Activity (%) ([3]; 1 h, pH 7): 61.85% | Residual Activity (%) ([3]; 2 h, pH 7): 40.66%

[Ca+2].[Cl-].[Cl-] [Ca^+2]
activation of protease activity ([2]; 1 mM and 10 mM): no activation | Residual Activity (%) ([2]; 1 mM chloride salt): 92.99% | Residual Activity (%) ([2]; 10 mM chloride salt): 81.75%

ClC(Cl)Cl [Chloroform, chloroform]
Residual Activity (%) ([3]; 0 h, pH 7): 100.00% | Residual Activity (%) ([3]; 1 h, pH 7): 77.14% | Residual Activity (%) ([3]; 2 h, pH 7): 38.55%

N-tosyl-L-phenylalanine chloromethyl ketone [TPCK]
Inhibition (%) [1, 9]: 7.33%

N=C(N)c1ccccc1 [Benzamidine]
Inhibition (%) [1, 9]: 3.62%

[Cd+2] [Cd^+2]
inhibition [2]: 3% | Residual Activity (%) ([2]; 1 mM chloride salt): 96.99% | Residual Activity (%) ([2]; 10 mM chloride salt): 63.50%

[Cl][Fe]([Cl])[Cl] [Fe^+3]
Residual Activity (%) ([2]; 1 mM chloride salt): 81.67% | Residual Activity (%) ([2]; 10 mM chloride salt): 82.66%

O=C(O)CN(CCN(CC(=O)O)CC(=O)O)CC(=O)O [EDTA, ethylene-diaminetetraacetic acid]
Inhibition (%) ([1]; inhibitor 20 mM, pre-incubated 1 h, pH 8.0): 1.51%

O=C1CCC(=O)N1Br [NBS, N-bromosuccinimide]
Inhibition (%) ([4]; 0.01 mM NBS, casein 0 mg): 87.06% | Inhibition (%) ([4]; 0.01 mM NBS, casein 1 mg): 84.85% | Inhibition (%) ([4]; 0.01 mM NBS, casein 2 mg): 69.95% | Inhibition (%) ([4]; 0.01 mM NBS, casein 3 mg): 64.09% | Inhibition (%) ([4]; 0.01 mM NBS, casein 4 mg): 48.93% | Inhibition (%) ([4]; 0.01 mM NBS, casein 5 mg): 43.25% | Inhibition (%) ([4]; 0.01 mM NBS, casein 6 mg): 38.03% | Inhibition (%) ([4]; 0.01 mM NBS, casein 7 mg): 34.06% | Inhibition (%) ([4]; 0.01 mM NBS, casein 8 mg): 24.25% | Inhibition (%) ([4]; 0.01 mM NBS, casein 9 mg): 16.27% | Inhibition (%) ([4]; 0.01 mM NBS, casein 10 mg): 16.28% | concentration at which complete inhibition was observed ([5]; 10 μM purified protease): 0.06 mM | Residual Activity (%) ([5]; NBS 0.01 mM): 20.39% | Residual Activity (%) ([5]; NBS 0.02 mM): 15.70% | Residual Activity (%) ([5]; NBS 0.03 mM): 12.55% | Residual Activity (%) ([5]; NBS 0.04 mM): 8.93% | Residual Activity (%) ([5]; NBS 0.05 mM): 7.08% | Residual Activity (%) ([5]; NBS 0.06 mM): 0% | Residual Activity (%) ([5]; NBS 0.07 mM): 0% | Residual Activity (%) ([5]; NBS 0.08 mM): 0% | Residual Activity (%) ([5]; NBS 0.09 mM): 0% | Residual Activity (%) ([5]; NBS 0.10 mM): 0%

Triton X-100
activity retained ([6]; 2% Triton X-100, 28° C.): 80%

[Cl-].[Cl-].[Co+2] [Co^+2]
inhibitory effect on the protease ([2]; 1 mM and 10 mM): no inhibitory effect | Residual Activity (%) ([2]; 1 mM chloride salt): 103.86% | Residual Activity (%) ([2]; 10 mM chloride salt): 112.36%

OCCS [BME, β-mercapto ethanol]
activity retained ([6]; 10% BME, 28° C.): retained full activity

O=S(=O)(F)Cc1ccccc1 [PMSF, phenylmethylsulfonyl fluoride]
Inhibition (%) ([4]; 0.01 mM PMSF, casein 0 mg): 95.02% | Inhibition (%) ([4]; 0.01 mM PMSF, casein 1 mg): 74.91% | Inhibition (%) ([4]; 0.01 mM PMSF, casein 2 mg): 70.78% | Inhibition (%) ([4]; 0.01 mM PMSF, casein 3 mg): 64.06% | Inhibition (%) ([4]; 0.01 mM PMSF, casein 4 mg): 60.71% | Inhibition (%) ([4]; 0.01 mM PMSF, casein 5 mg): 52.65% | Inhibition (%) ([4]; 0.01 mM PMSF, casein 6 mg): 45.22% | Inhibition (%) ([4]; 0.01 mM PMSF, casein 7 mg): 41.73% | Inhibition (%) ([4]; 0.01 mM PMSF, casein 8 mg): 34.80% | Inhibition (%) ([4]; 0.01 mM PMSF, casein 9 mg): 31.56% | Inhibition (%) ([4]; 0.01 mM PMSF, casein 10 mg): 26.26% | concentration at which complete inhibition was observed ([7]; 10 μM purified protease): 0.025 mM | Residual Activity (%) ([7]; PMSF 0.005 mM): 45.65% | Residual Activity (%) ([7]; PMSF 0.010 mM): 8.78% | Residual Activity (%) ([7]; PMSF 0.015 mM): 3.76% | Residual Activity (%) ([7]; PMSF 0.020 mM): 1.74% | Residual Activity (%) ([7]; PMSF 0.025 mM): 0% | Residual Activity (%) ([7]; PMSF 0.030 mM): 0% | Residual Activity (%) ([7]; PMSF 0.035 mM): 0% | Residual Activity (%) ([7]; PMSF 0.040 mM): 0% | Residual Activity (%) ([7]; PMSF 0.045 mM): 0% | Residual Activity (%) ([7]; PMSF 0.050 mM): 0%

C[S+](C)[O-] [DMSO, Dimethylsulphoxide]
Inhibition (%) ([1]; inhibitor 10%, pre-incubated 1 h, pH 8.0): 0.04% | Residual Activity (%) ([3]; 0 h, pH 7): 100.00% | Residual Activity (%) ([3]; 1 h, pH 7): 87.52%

CCO [Ethanol, ethanol]
Residual Activity (%) ([3]; 0 h, pH 7): 100.00% | Residual Activity (%) ([3]; 1 h, pH 7): 98.50% | Residual Activity (%) ([3]; 2 h, pH 7): 45.21%

1-butanol
Residual Activity (%) ([3]; 0 h, pH 7): 100.00% | Residual Activity (%) ([3]; 1 h, pH 7): 82.07% | Residual Activity (%) ([3]; 2 h, pH 7): 46.38%

[Cl-].[K+] [K^+1]
Residual Activity (%) ([2]; 1 mM chloride salt): 91.71% | Residual Activity (%) ([2]; 10 mM chloride salt): 87.63%

N-tosyl-L-lysine chloromethyl ketone [TLCK]
Inhibition (%) [1, 9]: 12.12%

CC[n+]1ccc(-c2cccc(S(=O)(=O)[O-])c2)o1 [WRK, Woodward's reagent]
Inhibition (%) ([4]; 5 mM WRK, casein 0 mg): 75.26% | Inhibition (%) ([4]; 5 mM WRK, casein 1 mg): 66.03% | Inhibition (%) ([4]; 5 mM WRK, casein 2 mg): 59.32% | Inhibition (%) ([4]; 5 mM WRK, casein 3 mg): 53.22% | Inhibition (%) ([4]; 5 mM WRK, casein 4 mg): 45.06% | Inhibition (%) ([4]; 5 mM WRK, casein 5 mg): 40.25% | Inhibition (%) ([4]; 5 mM WRK, casein 6 mg): 31.10% | Inhibition (%) ([4]; 5 mM WRK, casein 7 mg): 26.27% | Inhibition (%) ([4]; 5 mM WRK, casein 8 mg): 19.32% | Inhibition (%) ([4]; 5 mM WRK, casein 9 mg): 12.87% | Inhibition (%) ([4]; 5 mM WRK, casein 10 mg): 8.72% | concentration at which complete inhibition was observed ([8]; 10 μM purified protease): 9 mM | Residual Activity (%) ([8]; WRK 1 mM): 86.08% | Residual Activity (%) ([8]; WRK 2 mM): 75.76% | Residual Activity (%) ([8]; WRK 3 mM): 61.47% | Residual Activity (%) ([8]; WRK 4 mM): 49.05% | Residual Activity (%) ([8]; WRK 5 mM): 34.66% | Residual Activity (%) ([8]; WRK 6 mM): 19.53% | Residual Activity (%) ([8]; WRK 7 mM): 11.69% | Residual Activity (%) ([8]; WRK 8 mM): 6.39% | Residual Activity (%) ([8]; WRK 9 mM): 0% | Residual Activity (%) ([8]; WRK 10 mM): 0%

[Cl][Cu][Cl] [Cu^+2]
inhibitory effect on the protease ([2]; 1 mM and 10 mM): no inhibitory effect | Residual Activity (%) ([2]; 1 mM chloride salt): 109.42% | Residual Activity (%) ([2]; 10 mM chloride salt): 100.02%

CC(C)=O [Acetone, acetone]
Residual Activity (%) ([3]; 0 h, pH 7): 100.00% | Residual Activity (%) ([3]; 1 h, pH 7): 99.07% | Residual Activity (%) ([3]; 2 h, pH 7): 70.45% | Residual Activity (%) ([3]; 2 h, pH 7, listed as acetone): around 70%
